Among the data in patent publication US20050261201A1, “Method of reducing C-reactive protein using growth hormone secretagogues” (Rejuvenon Corporation, priority 2004, published 2005) are CRP serum levels values, retold here.

This experiment deals with human CRP. Kind of experiment: CRP serum levels in CRP transgenic mice (ELISA). The format is in vivo, C57BL/6J congenic CRP transgenic mice that express human CRP. The following applies: daily oral gavage for 14 days, serum at Day 15, vs saline vehicle, n=10. Here is the method: The experiment was conducted to determine the effect of the growth hormone secretagogue RC-1141 on CRP serum levels. The compound RC-1141 was tested in C57BL/6J congenic CRP transgenic mice that express human CRP.
The establishment of a breeding colony of CRPtg C57BL/6J congenic mice has been described in Szalai, A. et al., “Human C-Reactive Protein is Protective Against Fatal Streptococcus pneumoniae Infection in Transgenic Mice,” J. Immunol. 155:2557-2563 (1995), the entire content of which is hereby incorporated by reference. The breeding colony was established by mating transgenic founder males with normal female C57BL/6J mice. The normal female C57BL/6J mice were obtained from Charles River Laboratories (Boston, Mass.). Transgenic founders were obtained from Dr. Ulrich Ruther (Institut für Molekularbiologie, Medizinische Hochschule, Hannover, Germany), and were descendants of transgenic mice originally described by Ciliberto, G., R. Arcone, E. F. Wagner, U. Rüther, “Inducible and tissue-specific expression of human C-reactive protein in transgenic mice” EMBO J, 6:4017 (1987), the entire content of which is hereby incorporated by reference. […]
CRP serum levels were measured using ELISA. […]
Concentration was determined by the ELISA described above. […]

With `CN(C(=O)/C=C/CC1(N)CCC1)[C@H](Cc1ccc(-c2ccccc2)cc1)C(=O)N(C)[C@H](Cc1ccccc1)C(=O)N1CCC(O)CC1` [RC-1141, (2E)-4-(1-aminocyclobutyl)but-2-enoic acid N-((1R)-1-{N-[(1R)-1-benzyl-2-(4-hydroxypiperidin-1-yl)-2-oxoethyl]-N-methylcarbomoyl}-2-(biphenyl-4-yl)ethyl)-N-methylamide], the CRP serum levels result (5 mg/kg body weight (low dose)) is recorded as “significant decrease” and the CRP serum levels entry (10 mg/kg body weight (high dose)) is reported as “significant decrease”.
